Assay results from US20030082101A1, “Accelerators for increasing the rate of formation of free radicals and reactive oxygen species” (Cavalier Discovery, priority 2001, published 2003).

What was measured:
Assay type in all cases: biochemical
ferritin [1] = test: Release of iron from ferritin assay, anthraquinones, ultrasound (Example 9); conditions: 0.2 mg/mL ferritin, pH 7.5, 15 min
Description: All solutions are prepared in pH 7.5 phosphate buffer containing approximately 0.2 mg/mL ferritin and 1 mM ferrozine, and the concentration of anthraquinone indicated in the table below. Solutions are sonicated at 30 W, 2 MHz, 32-34 degrees Celsius for fifteen minutes using a PZT-8 1.8 cm diameter custom transducer. The sonicated solution is placed on an orbit shaker rotating at 25 RPM to ensure even sonication of the solution while the transducer is held stationary. Control solutions are placed in a controlled temperature bath at 32-34 degrees Celsius without sonication. After 15 minutes of treatment, an aliquot is tested for the presence of the iron-ferrozine chelate via absorbance at 562 nm. The amount of iron released is determined using the control solution corrected absorbance (subtract the absorbance of the control solution from the absorbance of the ultrasound solution). The corrected absorbance is compared to a ferrozine-iron standard curve to determine the amount of iron released.

deoxyribose [2] = test: TBARS assay, existing sonodynamic agents with a metal, ultrasound (Example 14); conditions: 0.025 mM ferrous iron, 0.025 mM ferric iron
Description: (§1) All solutions are prepared in pH 7.5 phosphate buffer containing approximately 2 mM deoxyribose, 0.01% hydrogen peroxide, 0.025 mM ferrous iron, 0.025 mM ferric iron, and the additives indicated in the table below. Solutions are sonicated at 30 W, 2 MHz, 32-34 degrees Celsius for ten minutes using a PZT-8 1.8 cm diameter custom transducer. The sonicated solution is placed on an orbit shaker rotating at 25 RPM to ensure even sonication of the solution while the transducer is held stationary. Control solutions are placed in a controlled temperature bath at 32-34 degrees Celsius without sonication. After 10 minutes of treatment, 1 mL test solution is placed in a test tube followed by 2 mL of 1% 2-thiobarbituric acid and 2 mL of 2.8% trichloroacetic acid. The test tube is sealed and heated to 90 degrees Celsius for 30 minutes and allowed to cool to room temperature for 20 minutes. The absorbance at 532 nm is measured. The enhanced radical production during ultrasound exposure is determined by comparing the amount of deoxyribose degradation that occurs in the sonicated solution versus the control solution using the following equation: [formula]

deoxyribose [3] = test: TBARS assay, additives with ferrous iron/EDTA, ultrasound (Example 11); conditions: 0.075 mM additive; 0.05 mM ferrous iron, 0.075 mM EDTA
Description: as §1, with “The following example uses the thiobarbituric acid-reactive substances (TBARS) assay to identify metals that enhance radical production during ultrasound. All” for “All”, “0.05” for “0.025”, “iron added as FeSO4 hydrate, 0.075” for “iron, 0.025”, “EDTA,” for “ferric iron,”

ferritin [4] = test: Release of iron from ferritin assay, additives, ultrasound (Example 10); conditions: 0.2 mg/mL ferritin, pH 7, 15 min
Description: (§2) The following example uses the release of iron from ferritin assay to show the effect of additives on the release of iron from ferritin during ultrasound exposure. All solutions were prepared in pH 7 acetic acid solution containing approximately 0.2 mg/mL ferritin and 1 mM ferrozine, and the concentration of 1,4-quinone indicated in the table below. Solutions were sonicated at 30 W, 2 MHz, 32-34 degrees Celsius for fifteen minutes using a PZT-8 1.8 cm diameter custom transducer. The sonicated solution was placed on an orbit shaker rotating at 25 RPM to ensure even sonication of the solution while the transducer was held stationary. Control solutions were placed in a controlled temperature bath at 32-34 degrees Celsius without sonication. After 15 minutes of treatment, an aliquot was tested for the presence of the iron-ferrozine chelate via absorbance at 562 nm. The amount of iron released was determined using the control solution corrected absorbance (subtract the absorbance of the control solution from the absorbance of the ultrasound solution). The corrected absorbance was compared to a ferrozine-iron standard curve to determine the enhanced iron release due to ultrasound exposure. The enhanced iron release due to ultrasound exposure in the presence of the additive was compared to the amount of enhanced iron release due to ultrasound exposure in the absence of any additives as follows: [formula]

[5] = Free radical production when exposed to ultrasound and a metal (statements in the description); conditions: when exposed to ultrasound and a metal
deoxyribose [6] = test: TBARS assay, metals that enhance radical production during ultrasound (Example 6)
Description: The following example uses the thiobarbituric acid-reactive substances (TBARS) assay to identify metals that enhance radical production during ultrasound. All solutions were prepared in pH 7.5 phosphate buffer containing approximately 2 mM deoxyribose, 0.01% hydrogen peroxide, and the additives indicated in the table below. Solutions were sonicated at 30 W, 2 MHz, 32-34 degrees Celsius for ten minutes using a PZT-8 1.8 cm diameter custom transducer. The sonicated solution was placed on an orbit shaker rotating at 25 RPM to ensure even sonication of the solution while the transducer was held stationary. Control solutions were placed in a controlled temperature bath at 32-34 degrees Celsius without sonication. After 10 minutes of treatment, 1 mL test solution was placed in a test tube followed by 2 mL of 1% 2-thiobarbituric acid and 2 mL of 2.8% trichloroacetic acid. The test tube was sealed and heated to 90 degrees Celsius for 30 minutes and allowed to cool to room temperature for 20 minutes. The absorbance at 532 nm was measured. The enhanced radical production during ultrasound exposure was determined by comparing the amount of deoxyribose degradation that occurs in the sonicated solution versus the control solution using the following equation: [formula]

ferritin [7] = test: Release of iron from ferritin assay, naphthoquinones, ultrasound (Example 8); conditions: iron release vs ultrasound without additive, 0.2 mg/mL ferritin, pH 7, 15 min
Description: as §2, with “of naphthoquinones” for “of additives”, “of naphthoquinone” for “of 1,4-quinone”, “the amount of” for “the enhanced”, “iron released.” for “iron release due to ultrasound exposure.”, “the naphthoquinone” for “the additive”

deoxyribose [8] = test: TBARS assay, existing sonodynamic agents with a metal, ultrasound (Example 13); conditions: 0.025 mM ferrous iron, 0.025 mM ferric iron
Description: All solutions were prepared in pH 7.5 phosphate buffer containing approximately 2 mM deoxyribose, 0.01% hydrogen peroxide, 0.025 mM ferrous iron, 0.025 mM ferric iron, and the additives indicated in the table below. Solutions were sonicated at 30 W, 2 MHz, 32-34 degrees Celsius for ten minutes using a PZT-8 1.8 cm diameter custom transducer. The sonicated solution was placed on an orbit shaker rotating at 25 RPM to ensure even sonication of the solution while the transducer was held stationary. Control solutions were placed in a controlled temperature bath at 32-34 degrees Celsius without sonication. After 10 minutes of treatment, 1 mL test solution was placed in a test tube followed by 2 mL of 1% 2-thiobarbituric acid and 2 mL of 2.8% trichloroacetic acid. The test tube was sealed and heated to 90 degrees Celsius for 30 minutes and allowed to cool to room temperature for 20 minutes. The absorbance at 532 nm was measured. The enhanced radical production during ultrasound exposure was determined by comparing the amount of deoxyribose degradation that occurs in the sonicated solution versus the control solution using the following equation: [formula]

Molecule: O=C1c2ccccc2C(=O)c2c1cc(S(=O)(=O)O)c(O)c2O [Alizarin Red S, 3,4-dihydroxy-9,10-dioxo-2-anthracenesulfonic acid]
- % Ultrasound Mediated Activity (ferritin [1]; 0.05 mM additive): >50%

Molecule: Hypocrellin A
- % Ultrasound Mediated Activity vs Control (deoxyribose [2]; 0.025 mM additive): >30%

Molecule: O=c1c(O)c(-c2cc(O)c(O)c(O)c2)oc2cc(O)cc(O)c12 [Myricetin]
- % Ultrasound Mediated Activity vs Control (deoxyribose [3]): >100%

Molecule: N[C@@H](CS)C(=O)O [CYSTEINE]
- % Ultrasound Mediated Activity (ferritin [4]; 0.45 mM additive): 160%
- free radical production [5]: increase free radical production

Molecule: Cc1cc(O)c2c(c1)C(=O)c1cccc(O)c1C2=O [Chrysophanol, 1,8-dihydroxy-3-methylanthraquinone]
- % Ultrasound Mediated Activity (ferritin [1]; 0.05 mM additive): >50%

Molecule: [Cl][Fe]([Cl])[Cl] [Ferric iron added as FeCl3, FeCl3]
- % Ultrasound Mediated Activity vs Control (deoxyribose [6]; ferric iron approx 0.1 mM): 76%

Molecule: O=C(O)/C(O)=C(\O)C(=O)O [DIHYDROXYFUMARATE]
- % Ultrasound Mediated Activity (ferritin [4]; 0.01 mM additive): 72%

Molecule: CC(C)=CCC1=C(O)C(=O)c2ccccc2C1=O [2-hydroxy-3-(3-methyl-2-butenyl)-1,4-naphthoquinone]
- % Ultrasound Mediated Activity (ferritin [7]; 15 uM additive): 72%

Molecule: O=C1C=CC(=O)c2c(O)ccc(O)c21 [5,8 dihydroxy-1,4-naphthoquinone]
- % Ultrasound Mediated Activity (ferritin [7]; 106 uM additive): 185%

Molecule: O=c1c(O)c(-c2ccc(O)c(O)c2)oc2cc(O)cc(O)c12 [Quercetin]
- % Ultrasound Mediated Activity vs Control (deoxyribose [3]): >100%

Molecule: O=S(=O)([O-])[O-].O=S(=O)([O-])[O-].[Fe+2].[NH4+].[NH4+] [Ferrous iron added as Fe(NH4)2(SO4)2, Fe(NH4)2(SO4)2]
- % Ultrasound Mediated Activity vs Control (deoxyribose [6]; ferrous iron 0.1 mM): 12%

Molecule: O=C1C(O)=C(O)C(=O)C(O)=C1O [Tetrahydroxy 1,4-benzoquinone]
- % Ultrasound Mediated Activity (ferritin [4]; 0.11 mM additive): 186%

Molecule: Cc1cc(O)c2c(c1)C(=O)c1cc(O)cc(O)c1C2=O [Emodin, 6-methyl-1,3,8-trihydroxyanthraquinone]
- % Ultrasound Mediated Activity (ferritin [1]; 0.05 mM additive): >50%

Molecule: CC(C)(S)[C@@H](N)C(=O)O [PENICILLAMINE]
- % Ultrasound Mediated Activity (ferritin [4]; 0.11 mM additive): 117%
- free radical production [5]: increase free radical production

Molecule: O=C1C=CC(=O)C=C1 [1,4 benzoquinone]
- % Ultrasound Mediated Activity (ferritin [4]; concentration not given): 0%

Molecule: CC1=CC(=O)c2c(O)cccc2C1=O [5-hydroxy-2-methyl-1,4-naphthoquinone]
- % Ultrasound Mediated Activity (ferritin [7]; 71 uM additive): 155%

Molecule: COc1cccc2c1C(=O)c1c(O)c3c(c(O)c1C2=O)C[C@@](O)(C(=O)CO)C[C@@H]3O[C@H]1C[C@H](N)[C@H](O)[C@H](C)O1 [Adriamycin]
- % Ultrasound Mediated Activity vs Control (deoxyribose [8]; 0.029 mM additive): 29%

Molecule: Ferritin
- % Ultrasound Mediated Activity vs Control (deoxyribose [6]; ferritin approx. 0.2 mg/mL): 6%

Molecule: [Cl][Cu][Cl] [Cupric chloride]
- % Ultrasound Mediated Activity vs Control (deoxyribose [6]; cupric chloride 0.026 mM): 82%

Molecule: Iron(III) phthalocyanine-4,4′,4″,4″′-tetrasulfonic acid
- % Ultrasound Mediated Activity vs Control (deoxyribose [2]; 0.025 uM additive): >30%

Molecule: O=C1c2ccccc2C(=O)c2cc(S(=O)(=O)O)ccc21 [Anthraquinone-2-sulfonic acid]
- % Ultrasound Mediated Activity (ferritin [1]; concentration not given): <10%

Molecule: O=C([O-])c1c(Cl)c(Cl)c(Cl)c(Cl)c1-c1c2cc(I)c(=O)c(I)c-2oc2c(I)c([O-])c(I)cc12.[Na+].[Na+] [Rose Bengal]
- % Ultrasound Mediated Activity vs Control (deoxyribose [8]; 0.028 mM additive): 28%

Molecule: O=C(O)c1cc(O)c2c(c1)C(=O)c1cccc(O)c1C2=O [Rhein, 9,10-dihydro-4,5-dihydroxy-9,10-dioxo-2-anthracenecarboxylic acid]
- % Ultrasound Mediated Activity (ferritin [1]; 0.05 mM additive): >50%
